Key:
green foxtail [1] = assay: Test Example 4: herbicidal effect by soil treatment (Table 19, symbol G); type: in vivo, green foxtail (Setaria viridis); conditions: amount of applied herbicide 320 g/ha
Outline: (§1)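 Step 1: sow seeds in sterilized diluvial soil, cover ~1.5 cm. Step 2: spray diluted emulsion onto soil surface at predetermined rate. Step 3: greenhouse, 25–30° C, three weeks. Step 4: grade effect on each plant by earlier criteria.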

Japanese bulrush [2] = assay: Test Example 1: herbicidal activity, application before weed generation under submerged conditions (Table 16, symbol B); type: in vivo, Japanese bulrush (Schoenoplectus juncoides); conditions: amount of applied herbicide 320 g/ha
Outline: (§2)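 Submerged Wagner pots (alluvial soil, 4 cm water) sown with weed seeds and planted with 2.5-leaf rice seedlings; emulsifiable concentrate diluted in water applied to water surface on sowing day. Held in greenhouse at 25-30 °C; injury scored 0-5 by herbicidal rate after three weeks.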

oval-leafed pondweed [3] = assay: Test Example 1: herbicidal activity, application before weed generation under submerged conditions (Table 16, symbol C); type: in vivo, oval-leafed pondweed (Monochoria vaginalis); conditions: amount of applied herbicide 320 g/ha
Outline: as §2

velvetleaf [4] = assay: Test Example 5: herbicidal effect by foliage application, plastic box (Table 20, symbol M); type: in vivo, velvetleaf (Abutilon theophrasti); conditions: foliage application, 320 g/ha, three weeks after application
Outline: (§3)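 Foliar spray test: emulsion formulation diluted in water to a set application rate, sprayed onto 14-day-old plants raised in diluvial soil at 25° C to 30° C under glass. Both herbicidal effect and crop effect rated visually three weeks later.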

southern crabgrass [5] = assay: Test Example 4: herbicidal effect by soil treatment (Table 19, symbol F); type: in vivo, southern crabgrass (Digitaria ciliaris); conditions: amount of applied herbicide 320 g/ha
Outline: as §1

late watergrass [6] = assay: Test Example 1: herbicidal activity, application before weed generation under submerged conditions (Table 16, symbol A); type: in vivo, late watergrass (Echinochloa oryzicola); conditions: amount of applied herbicide 320 g/ha
Outline: as §2

lambsquarters [7] = assay: Test Example 4: herbicidal effect by soil treatment (Table 19, symbol O); type: in vivo, lambsquarters (Chenopodium album); conditions: amount of applied herbicide 320 g/ha
Outline: as §1

barnyard grass [8] = assay: Test Example 3: herbicidal effect by foliage application, Wagner pot (Table 18, symbol H); type: in vivo, barnyard grass (Echinochloa crus-galli); conditions: amount of applied herbicide 320 g/ha
Outline: (§4)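 Plants were sown in alluvial soil held under 0.1–0.5 cm standing water and grown 14 days in a greenhouse at 25–30 °C. An emulsifiable formulation, water-diluted to the set dose, was then sprayed onto the foliage, and effects were scored three weeks later using previously defined criteria.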

southern crabgrass [9] = assay: Test Example 5: herbicidal effect by foliage application, plastic box (Table 20, symbol F); type: in vivo, southern crabgrass (Digitaria ciliaris); conditions: foliage application, 320 g/ha, three weeks after application
Outline: as §3

Japanese bulrush [10] = assay: Test Example 2: herbicidal activity, application during weed generation under submerged conditions (Table 17, symbol B); type: in vivo, Japanese bulrush (Schoenoplectus juncoides); conditions: AAH 320 g/ha; application during weed generation, submerged conditions
Outline: (§5)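 Mixed weed seedlings in alluvial soil under a 4 cm water layer, greenhouse-grown at 25–30° C. Compound given as a diluted emulsion into the floodwater at the 1–2 leaf stage; response graded after three weeks.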

oval-leafed pondweed [11] = assay: Test Example 2: herbicidal activity, application during weed generation under submerged conditions (Table 17, symbol C); type: in vivo, oval-leafed pondweed (Monochoria vaginalis); conditions: AAH 320 g/ha; application during weed generation, submerged conditions
Outline: as §5

velvetleaf [12] = assay: Test Example 4: herbicidal effect by soil treatment (Table 19, symbol M); type: in vivo, velvetleaf (Abutilon theophrasti); conditions: amount of applied herbicide 320 g/ha
Outline: as §1

green foxtail [13] = assay: Test Example 5: herbicidal effect by foliage application, plastic box (Table 20, symbol G); type: in vivo, green foxtail (Setaria viridis); conditions: foliage application, 320 g/ha, three weeks after application
Outline: as §3

lambsquarters [14] = assay: Test Example 5: herbicidal effect by foliage application, plastic box (Table 20, symbol O); type: in vivo, lambsquarters (Chenopodium album); conditions: foliage application, 320 g/ha, three weeks after application
Outline: as §3

rice flat sedge = assay: Test Example 3: herbicidal effect by foliage application, Wagner pot (Table 18, symbol E); type: in vivo, rice flat sedge (Cyperus iria); conditions: amount of applied herbicide 320 g/ha
Outline: as §4

redroot pigweed [15] = assay: Test Example 5: herbicidal effect by foliage application, plastic box (Table 20, symbol N); type: in vivo, redroot pigweed (Amaranthus retroflexus); conditions: foliage application, 320 g/ha, three weeks after application
Outline: as §3

late watergrass [16] = assay: Test Example 2: herbicidal activity, application during weed generation under submerged conditions (Table 17, symbol A); type: in vivo, late watergrass (Echinochloa oryzicola); conditions: AAH 320 g/ha; application during weed generation, submerged conditions
Outline: as §5

barnyard grass [17] = assay: Test Example 4: herbicidal effect by soil treatment (Table 19, symbol H); type: in vivo, barnyard grass (Echinochloa crus-galli); conditions: amount of applied herbicide 320 g/ha
Outline: as §1

Chinese sprangletop = assay: Test Example 3: herbicidal effect by foliage application, Wagner pot (Table 18, symbol D); type: in vivo, chinese sprangletop (Leptochloa chinensis); conditions: amount of applied herbicide 320 g/ha
Outline: as §4

redroot pigweed [18] = assay: Test Example 4: herbicidal effect by soil treatment (Table 19, symbol N); type: in vivo, redroot pigweed (Amaranthus retroflexus); conditions: amount of applied herbicide 320 g/ha
Outline: as §1

barnyard grass [19] = assay: Test Example 5: herbicidal effect by foliage application, plastic box (Table 20, symbol H); type: in vivo, barnyard grass (Echinochloa crus-galli); conditions: foliage application, 320 g/ha, three weeks after application
Outline: as §3

With COCC[S+]([O-])c1ccc(-c2sc3ccc(F)cc3c2-c2c(O)c(C)nn(C)c2=O)cc1 (stereo not drawn) [2-454] the “herbicidal effect, G: green foxtail” value (green foxtail [1]) was 5 (Herbicidal rate of 90% or more (almost completely withered)), the “Herbicidal effect, B: Japanese bulrush” value (Japanese bulrush [2]) was 0 (Herbicidal rate of 5% or less (almost no effect)) and the “Herbicidal effect, C: oval-leafed pondweed” value (oval-leafed pondweed [3]) was 0 (Herbicidal rate of 5% or less (almost no effect)). For the same compound, the “M: velvetleaf, herbicidal effect grade” value (velvetleaf [4]) was 5 (Herbicidal rate of 90% or more (almost completely withered)), the “herbicidal effect, F: southern crabgrass” value (southern crabgrass [5]) was 5 (Herbicidal rate of 90% or more (almost completely withered)) and the “Herbicidal effect, A: late watergrass” value (late watergrass [6]) was 3 (Herbicidal rate of 40% or more and less than 70%). The “herbicidal effect, O: lambsquarters” value (lambsquarters [7]) was 4 (Herbicidal rate of 70% or more and less than 90%), the “herbicidal effect on H: barnyard grass” value (barnyard grass [8]) was 5 (Herbicidal rate of 90% or more (almost completely withered)) and the “F: southern crabgrass, herbicidal effect grade” value (southern crabgrass [9]) was 5 (Herbicidal rate of 90% or more (almost completely withered)). The “herbicidal effect rating, B: Japanese bulrush” value (Japanese bulrush [10]) was 0 (Herbicidal rate of 5% or less (almost no effect)), the “herbicidal effect rating, C: oval-leafed pondweed” value (oval-leafed pondweed [11]) was 0 (Herbicidal rate of 5% or less (almost no effect)) and the “herbicidal effect, M: velvetleaf” value (velvetleaf [12]) was 3 (Herbicidal rate of 40% or more and less than 70%). For the same compound, the “G: green foxtail, herbicidal effect grade” value (green foxtail [13]) was 5 (Herbicidal rate of 90% or more (almost completely withered)), the “O: lambsquarters, herbicidal effect grade” value (lambsquarters [14]) was 5 (Herbicidal rate of 90% or more (almost completely withered)) and the “herbicidal effect on E: rice flat sedge” value (rice flat sedge) was 5 (Herbicidal rate of 90% or more (almost completely withered)). For the same compound, the “N: redroot pigweed, herbicidal effect grade” value (redroot pigweed [15]) was 5 (Herbicidal rate of 90% or more (almost completely withered)), the “herbicidal effect rating, A: late watergrass” value (late watergrass [16]) was 2 (Herbicidal rate of 20% or more and less than 40%) and the “herbicidal effect, H: barnyard grass” value (barnyard grass [17]) was 4 (Herbicidal rate of 70% or more and less than 90%). The “herbicidal effect on D: Chinese sprangletop” value (Chinese sprangletop) was 2 (Herbicidal rate of 20% or more and less than 40%), the “herbicidal effect, N: redroot pigweed” value (redroot pigweed [18]) was 5 (Herbicidal rate of 90% or more (almost completely withered)) and the “H: barnyard grass, herbicidal effect grade” value (barnyard grass [19]) was 5 (Herbicidal rate of 90% or more (almost completely withered)).

From patent US20230085307A1, “PYRIDAZINONE COMPOUND AND HERBICIDE” (NISSAN CHEMICAL CORPORATION, priority 2019, published 2023)
